Here are results for three compounds from patent US9456589B2, “Elasmobranch-repelling compounds and methods of use” (priority 2005, dated 2016).

For test [1], the system named is sharks (lemon, nurse, blacknose, blacktip pooled). Briefly: Tonic immobility, Syringe Assay, summary over species. The format is in vivo. The procedure:
(§1) One bioassay used to observe and measure flight response is the tonic immobility test. Tonic immobility is a state of paralysis that typically occurs when a shark is subject to inversion of its body along the longitudinal axis. This state is called “tonic,” and the shark can remain in this state for up to 15 minutes thereby allowing researchers to observe effects of chemical repellents. The “tonic” state of the shark is first established by releasing seawater in proximity to the “tonic” shark with the same delivery instrument and at the same distance as a “test” repellent compound will be released. Some controls are released with a high flow rate (30 mL/sec) in order to establish that sharks are not awakened by a jet of fluid over their noses. Once behavioral controls are established, a compound or composition that may have a repelling effect is delivered to the shark. If the compound or composition engenders a flight response, the shark will awaken from the tonic state and rapidly attempt to flee the delivered repellent. Using this tonic immobility bioassay researches can quantify the strength of a repellent effect.
A second delivery method called the “Syringe Assay” method delivered a dose of 60 mL or more of a test chemical repellent from at least one foot, and up to as many as five feet, from a shark. The distance of delivery was determined based on the strength of the water current in the direction of the shark. Time from delivery of the test substance until response was observed, measured and recorded. The “Syringe” method allows a researcher to observe how a diffusing and diluting cloud of test chemical repellent affects the shark's behavior when the shark encounters the delivered cloud of test substance. The “Syringe” method requires relatively large doses because of the diffusion of the cloud over time and distance. Time from delivery to response is related to the size of the bolus delivered from the syringe, distance of the shark from the syringe and water current.
In the Syringe assay about 60 mL or more of valeraldehyde was delivered from one to as many as five feet from the shark depending on the water current. […] Time from delivery to response was related to the size of the bolus delivered from the syringe, distance of the shark from the syringe and water current.

In test [2] the test system is nurse sharks. The experiment in a line: Tonic immobility, Bite Assay. The format is in vivo, C. cirratum. The procedure: One bioassay used to observe and measure flight response is the tonic immobility test. Tonic immobility is a state of paralysis that typically occurs when a shark is subject to inversion of its body along the longitudinal axis. This state is called “tonic,” and the shark can remain in this state for up to 15 minutes thereby allowing researchers to observe effects of chemical repellents. The “tonic” state of the shark is first established by releasing seawater in proximity to the “tonic” shark with the same delivery instrument and at the same distance as a “test” repellent compound will be released. Some controls are released with a high flow rate (30 mL/sec) in order to establish that sharks are not awakened by a jet of fluid over their noses. Once behavioral controls are established, a compound or composition that may have a repelling effect is delivered to the shark. […] Using this tonic immobility bioassay researches can quantify the strength of a repellent effect. […]
In Bite Assays, a dose of typically less than 5 mL of 3-methylbutanal was presented directly into the shark's mouth using a pipette. […] Because the delivery was directly into the shark's mouth and responses were generally observed immediately upon delivery, time to response was not recorded.

The subject of test [3] is Caribbean reef and blacknose sharks. The experiment in a line: Cloud Dispersion Assay on competitively feeding sharks. It is filed as in vivo, C. perezii, C. acronotus. The conditions noted are these: 290 microliters. An excerpt:
Another bioassay used to observe a flight response in sharks is a cloud dispersion assay on competitively feeding population of sharks. This assay is referred to as a “Cloud Dispersion Assay” or “Cloud Assay.” A pressurized fluid delivery system was designed to deliver repellent into large feeding populations of sharks. The repellent is released as a subsurface cloud, which follows the current. A 1 L plastic container containing the test chemical repellent solution is pressurized to approximately 20 psig with a battery compressor or hand pump. A globe valve is used to hold back the fluid. The fluid is delivered to the end of a long PVC pole using a Teflon tubing. This allows the operator to place the tip of the pole well into a population of feeding sharks. By actuating the small globe valve, a cloud of the chemical solution is released quickly and reliably into the feeding population. Controls are established using FD&C Red 40 dye and seawater, uncolored seawater, and air. These controls establish that sharks are not afraid to approach the delivery pole, nor are sharks deterred from feeding by the jet of control fluid or air.
In each assay disclosed herein, a control of sea water was performed prior to the testing of each test repellent. In the control, sea water was delivered to the shark to be tested in the same delivery manner as the test repellent was delivered. […]

For test [4], the system named is nurse sharks. Briefly: Tonic immobility, Micropipette Assay. The conditions noted are these: nurse; micropipette; 270 ul. The format is in vivo, C. cirratum. The method, then:
as §1
(§2) A fourth method of delivery was called the “Micropipette Assay” method of delivery. In this method, a very small dose (fraction of a mL) of a test substance was delivered directly into a shark's mouth. […] A response, such as a cough or other notable action of the shark, was usually noted when effective gustatory repellents were delivered directly into a shark's mouth while in tonic immobility.
The Micropipette Assay method has not proven to be a particularly effective method of assaying for a flight response in elasmobranchs. The Micropipette Assay method is, nevertheless, an excellent method for specifying that a gustatory response has occurred. It is effective for specifying a gustatory response because the micropipette delivery method allows direct delivery of an entire bolus of test substance into the mouth of the shark being tested. […]

The next test deals with blacktip sharks. Briefly: Tonic immobility, Syringe 3/5/10 Assay. It is filed as in vivo, C. limbatus. The method, then: as §1
In the tonic immobility studies disclosed herein, several different methods were employed for delivery of repelling compounds. A first method for delivery of chemical repellent in tonic immobility studies employed a “Syringe 3/5/10 Assay” method. The “Syringe 3/5/10 Assay” method is so named because a test repellent is delivered to a shark from a distance of about “3” inches with a bolus of about “5” mL with a response to the test repellent considered positive if the shark reacts with a change in behavior within less than about “10” seconds from the time of delivery.
The “3/5/10 Syringe Assay” as employed herein delivered a dose of 5-6 mL of a test chemical repellent from a syringe fixed with a needle having a gauge of about 22 from a distance at least 3 inches in front of a shark. Because the test chemical repellent was delivered at a distance from the shark's nares and mouth, a cloud of test chemical repellent was dispersed over the shark within the water column. The dispersed test repellent was subject to water current direction, dispersion and dilution. As a result, a flight response within 10 seconds was considered a positive repellency response. […] Time from delivery to response is related to the size of the bolus delivered from the syringe, distance of the shark from the syringe and water current.
(§3) Lemon, nurse, blacktip and tiger sharks were placed in tonic immobility by inverting the shark's body along its longitudinal axis. […] The “tonic” state of each shark was first established by releasing a control of seawater in proximity to the shark with the same delivery instrument and at the same distance as the chemical repellent would later be delivered. In certain controls, sea water was released with a high flow rate (30 mL/sec) in order to establish that the sharks would not be awakened by a jet of fluid over their noses.
(§4) Once behavioral controls were established, the chemical repellent was delivered to the shark using the Hd Syringe Assay method, the Syringe 3/5/10 Assay method, the Bite Assay method or the Micropipette Assay method. […] If tonic immobility was terminated, the positive response was denoted as “Y.” If tonic immobility was not terminated but a behavior change within tonic immobility was noted, such as the opening of the mouth or a cough, the response was denoted as an “R” for reduced response. If no behavior change was observed, the negative response was denoted “N.”
In Syringe 3/5/10 Assays, 5-6 mL of 3-methylbutanal was delivered at least 3 inches in front of the shark's mouth. A cloud of the repellent dispersed over the shark within the water column. […] As noted above, because the dispersion of the chemical repellent upon delivery is affected by volume of repellent, water current, and other factors, the time between delivery and response was not correlatable with the potency of the repellent. […]

Test [5] relates to nurse sharks. Briefly: Tonic immobility, Syringe 3/5/10 Assay. The format is in vivo, C. cirratum. The conditions noted are these: juvenile nurse sharks.
The subject of test [6] is lemon sharks. Briefly: Tonic immobility, Hd Syringe Assay. It is filed as in vivo, N. brevirostris. The conditions noted are these: lemon; Hd syringe. The method, then:
as §1, §3
Once behavioral controls were established, the chemical repellent was delivered to the shark using the Hd Syringe Assay method, the Syringe 3/5/10 Assay method, the Bite Assay method or the Micropipette Assay method. […]

The test system of test [7] is nurse sharks. The experiment in a line: Tonic immobility, Hd Syringe Assay. The format is in vivo, C. cirratum. The following applies: nurse; Hd syringe. The procedure:
as §1
Lemon, nurse, blacktip and tiger sharks were placed in tonic immobility by inverting the shark's body along its longitudinal axis. […]

In test [8] the test system is lemon sharks. The experiment in a line: Tonic immobility, Micropipette Assay. It is filed as in vivo, N. brevirostris. The following applies: lemon / juvenile sharks; micropipette. The method, then:
as §1, §2
The Micropipette Assay method has not proven to be a particularly effective method of assaying for a flight response in elasmobranchs. The Micropipette Assay method is, nevertheless, an excellent method for specifying that a gustatory response has occurred. It is effective for specifying a gustatory response because the micropipette delivery method allows direct delivery of an entire bolus of test substance into the mouth of the shark being tested.
Using a microliter syringe or microliter pipette, a bolus of test chemical can be directed precisely into one of the shark's nares, or its mouth. […] Olfactory repellents will terminate tonic immobility almost immediately when injected into a nare of the shark.
as §3, §4
Further because the Micropipette assays were often done serially on the same set of sharks, second and third doses of the repellent over time would be expected to evoke less of a reaction. Nevertheless, the small doses delivered to the shark in the Micropipette assay provide important data on whether a compound is a gustatory stimulant because the small dose may be delivered directly into the mouth of the shark. This eliminates any olfactory response that might be acting in concert with a gustatory response to terminate tonic immobility.

A further test has as its system tiger sharks. Briefly: Tonic immobility, Syringe 3/5/10 Assay. It is filed as in vivo, G. cuvieri. The conditions noted are these: tiger shark. The procedure: as §1
In the tonic immobility studies disclosed herein, several different methods were employed for delivery of repelling compounds. A first method for delivery of chemical repellent in tonic immobility studies employed a “Syringe 3/5/10 Assay” method. […]

For test [9], the system named is lemon sharks. The conditions noted are these: Table 24; lemon shark; swab delivery.

Where “and” joins values, the source holds several entries; their conditions need not be identical. Equal values may be shown once. Entries after “also recorded” stand apart in the source; their conditions may differ.

`CC(=O)C(C)=O` [2,3-butanedione]: in test [1], the “Syringe N (no response), trials of trials” value is given as 1/8; the “Syringe R (behavior response within tonic immobility), trials of trials” value was “behavioral response”; the “Syringe Y (termination of tonic immobility), trials of trials” value is “seven of eight and 7/8”. The “Bite Y (termination of tonic immobility), trials of trials” value in the test on nurse sharks [2] is “terminated and 1/1”. In test [3], the “Cloud/Cage N (no response)” value is “no response and 1/1”.
As for `CCC(C=O)CC` [diethylacetaldehyde], the “Response (time from delivery to response)” value in the test on nurse sharks [4] is 1 s. In addition, the “Syringe 3/5/10 assays terminating tonic immobility” value was “two of four” in the test with blacktip sharks (blacktip sharks) and “six of six” in the test on nurse sharks [5]. The “Syringe 3/5/10 assays with behavioral response” value in the test with blacktip sharks (blacktip sharks) is recorded as “behavioral response”. The “Syringe 3/5/10 assays with no response” value in the test on blacktip sharks (blacktip sharks) was “no response”. Besides, the “Comments (behavior observed)” value with blacktip sharks (blacktip, syringe 3/5/10) was “cough/tensed”; in the test on lemon sharks [6], “cough”; in the test on nurse sharks [7] it was “cough”; with lemon sharks [8], “blinked; also recorded: cough”. Besides, the “Syringe 3/5/10 assay outcome” value in the test with tiger sharks was “terminated”.
Consider `O=C(O)CCC(=O)O` [succinic acid], for which the “T? (termination of tonic immobility)” value in the test on lemon sharks [9] is listed as “N”.
